Assay results: publication PMC8876511, “Two out of Three Musketeers Fight against Cancer: Synthesis, Physicochemical, and Biological Properties of Phosphino Cu^I, Ru^II, Ir^III Complexes” (Pharmaceuticals, 2022)

Assays:
Format in all cases: cell-based, human
[1] = system: Du-145 cells; assay: MTT cytotoxicity assay, Du-145
Procedure: Moreover, to investigate the activity of synthesized complexes as potential anticancer agents, their cytotoxicity toward a series of human cancer cell lines and a non-cancer cell line (HaCaT) was evaluated using the MTT assay. […] In addition, we also determined the cytotoxic activity of free ligands toward selected cancer cells. […] However, this effect depends on the cell line. […] The best values of cytotoxic activity of compounds have been obtained after 72 h of cell incubation. Additionally, synthesized complexes had high sensitivity to A549 cells, so this cell line was selected as the research subject for antitumor activity.
MCF7 cell line (human breast adenocarcinoma, morphology: epithelial-like, ATCC: HTB-22) and A549 cell line (human lung adenocarcinoma, morphology: epithelial, ATCC: CCL-185); HaCaT (human keratinocyte) were cultured in Dulbecco’s Modified Eagle’s Medium (DMEM, Corning, Poland) with phenol red, supplemented with 10% fetal bovine serum (FBS) and with 1% streptomycin/penicillin. Du-145 cell line (human prostate carcinoma); derived from metastatic site: brain was cultured in minimum essential medium (MEM, Corning) with only 10% fetal bovine serum (FBS). Cultures were incubated at 37 °C under a humidified atmosphere containing 5% CO2. Cells were passaged using a solution containing 0.05% trypsin and 0.5 mM EDTA. All media and other ingredients were purchased from ALAB, Poland.
Since most of the studied compounds are insoluble in aqueous media (Dulbecco’s Modified Eagle’s Medium or minimum essential medium (MEM, Corning), therefore, they needed to be pre-dissolved in DMSO for biological tests. DMSO concentration was kept below 1% in each tested concentration of each compound. […] In brief, 5×10^3 per well (0.2 mL) in the two first approaches, while 1×10^4 cells in the case of longer incubation time were seeded in 96-well flat-bottom microtiter plate, were incubated with the tested complexes at various ranges of concentrations. […] Various compound concentrations (dilutions in proper medium supplemented with 1% FBS) were tested in five replicates and repeated at least three times. Determined values of IC50 (concentration of a drug required to inhibit the growth of 50% of the cells) are given as mean + S.D. (Standard Deviation). IC50 values were determined, from the plots of cell viability in the presence of various concentrations of each compound by matching dose–response curves and using the Origin 9.0 software. Furthermore, post-treatment survival assessment of the treated cells was analyzed under an inverted fluorescence microscope (Olympus IC51, Japan) with an excitation filter 470/20 nm. For this, cells were stained with two versatile fluorescence dyes: fluorescein diacetate (FDA, 5 mg/mL) and propidium iodide (PI, 5 mg/mL) in standard conditions in the dark for 20 min. Before visualization, dyes were removed and cells were washed with PBS twice.

[2] = system: A549 cells; assay: Intracellular accumulation, fluorescence microscopy; details: A549, 5 μM, 24 h
Procedure: It has been reported that the cellular uptake efficacy of a compound is affected by many factors, such as lipophilicity. Synthesized complexes indicate blue fluorescence. Thus, their detection using fluorescence microscopy is possible. For this purpose, A549 (human lung adenocarcinoma epithelial) cells were incubated with Ir(III) complexes (5 μM) for 24 h and analyzed. Phalloidin was co-incubated with Ir(III) complexes to determine subcellular localization further.
The intracellular accumulation of the compound was assessed in the A549 cell line. Before imaging, cells were seeded on microscopic slides at a density of 1×10^5 cells and were kept at 37 °C with 5% CO2 humidified atmosphere for 24 h. After being washed with fresh medium, the cells were incubated with 5 μM solution of tested compound in cell medium for 24 h. Next, after being washed with HBSS, the cells were fixed for 10 min in 3.8% PFA and incubated with specific intracellular organelle probes: 200 nM Mito-Tracker green, 1 μg/mL Quinacrine, and 0.25 nM of PhalloidinAtto 488 (Molecular Probes, Invitrogen Life Technologies; Thermo Fisher Scientific, Waltham, MA, USA), diluted in HBSS buffer. After 30 min incubation, at 37 °C, in the dark, the cells were washed with HBSS two times, and the slide was transferred to the microscope stage and cells were visualized under a fluorescent Zeiss Axio Observer microscope. Registered images were analyzed with the Zeiss ZEN software.

[3] = system: A549 cells; assay: Cell cycle analysis by PI staining, flow cytometry; details: synchronized A549, various concentrations, 24 h
Procedure: Antitumor drugs induce cell cycle arrest by inhibiting DNA synthesis and enhancing DNA damage, ultimately leading cancer cells to apoptosis. We further studied the influence of Ir(III) and Ru(II) complexes on cell cycle distribution. Synchronized A549 cells were treated with Ir(III) (1a, 2a) or Ru(II) (1b, 2b) at various concentrations for 24 h. Cells were stained with propidium iodide (PI) and analyzed by flow cytometry. […] An arrest in S-phase implies that the cell cannot duplicate its DNA. Other authors recently reported a similar effect for iridium(III)polypyridyl complexes. Moreover, the percentage of the G2/M population also increases. However, higher doses (>10 μM) of Ir(III) complexes can enhance G0/G1-phase arrest.
The serum starvation protocol was used to synchronize cell cultures. A549 cells were seeded in a 12-well plate in a growth medium with 20% FBS overnight. Then, the cultures were washed by PBS and changed to a serum-free medium. After serum starvation for 24 h, cells were released into the cell cycle by the addition of serum and tested compounds solution for 24 h. The cells were then detached from the plate using trypsin. […] Cells were analyzed with the Guava® easyCyte™ flow cytometer equipped with a 488 nm laser. The obtained data were analyzed using InCyte Software (MerckMillipore, Burlington, MA, USA).

[4] = system: A549 cells; assay: MTT cytotoxicity assay, A549; details: 48 h
[5] = system: PANC-1 cells; assay: MTT cytotoxicity assay, PANC-1; details: 48 h

Molecule | IC50 ([1]; 24 h) [µM] | IC50 ([1]; 48 h) [µM] | IC50 ([1]; 72 h) [µM] | penetration into cells [2] | subcellular localization [2] | cell cycle perturbations [3] | IC50 [4] [µM] | IC50 [5] [µM]
CCN(CC)C[P+](c1ccccc1)(c1ccccc1)[Ir-3]([Cl])([Cl])[C]1(C)C(C)=C(C)C(C)=C1C [1a, Ir(η^5-Cp*)Cl2Ph2PCH2N(CH2CH3)2] | 90 ± 5 | 85 ± 9 | 19 ± 3 | can penetrate A549 cells | signal in whole (retain within the cytoplasm) cells with relative higher intensity in the nuclei | concentration-dependent cell cycle perturbations | 45 ± 4 | 204 ± 29
Ru(η^6-p-cymene)Cl2Ph2PCH2N(CH2CH3)2 [1b] | 122 ± 11 | 126 ± 12 | 23 ± 2 | can penetrate A549 cells | localize mainly in nuclei | concentration-dependent cell cycle perturbations | 425 ± 38 | 305 ± 13
